Assays:
Format in all cases: in vivo
Poa annua (POAAN) [1] = assay: A. Herbicidal pre-emergence efficacy, POAAN
In short: (§1)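 Applied before emergence onto covering soil at rates of 1280 g/ha or less, using 600 L/ha spray water with 0.5% additive. Scoring: visual % efficacy after ~3 weeks, greenhouse.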

Kochia scoparia (KCHSC) [2] = assay: B. Herbicidal post-emergence efficacy, KCHSC; conditions: for Post-emergence efficacy against KCHSC in %: rated visually after about 3 weeks
In short: (§2)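 First, seeds were sown in sandy loam and grown 2 to 3 weeks under controlled greenhouse conditions. Next, foliage at the one-leaf stage received the formulated compound in water with 0.5% additive (600 L/ha, 1280 g/ha or less). Finally, damage was rated visually after about 3 weeks against untreated plants.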

Lolium rigidum (LOLRI) = assay: A. Herbicidal pre-emergence efficacy, LOLRI; conditions: dosage 1280 g/ha
In short: as §1

[3] = tested on: Matricaria inodora (MATIN); assay: B. Herbicidal post-emergence efficacy, MATIN
Method: (§3) Seeds of mono- and dicotyledonous weed plants were placed in plastic pots in sandy loam soil (doubly sown with in each case one species of mono- or dicotyledonous weed plants per pot), covered with soil and cultivated in a greenhouse under controlled growth conditions. 2 to 3 weeks after sowing, the test plants were treated at the one-leaf stage. The compounds of the invention, formulated in the form of wettable powders (WP) or as emulsion concentrates (EC), were applied onto the green parts of the plants as aqueous suspension or emulsion with addition of 0.5% additive at a water application rate of 600 liters per hectare (converted). After the test plants had been kept in the greenhouse under optimum growth conditions for about 3 weeks, the activity of the preparations was rated visually in comparison to untreated controls.
(§4) For example, • 100% efficacy=plants have died, • 0% efficacy=like untreated control plants
(§5) Tables B1a to B12c below show the effects of selected inventive compounds of the general formula (I) according to table 1 on various harmful plants at an application rate corresponding to 1280 g/ha or less, which were obtained by the experimental procedure mentioned above.

[4] = tested on: Echinochloa crus-galli (ECHCG); assay: A. Herbicidal pre-emergence efficacy, ECHCG; conditions: 1280 g/ha; scored visually after about 3 weeks vs untreated controls
In short: as §1

[5] = tested on: Alopecurus myosuroides (ALOMY); assay: A. Herbicidal pre-emergence efficacy, ALOMY; conditions: 1280 g/ha; scored visually after about 3 weeks vs untreated controls
Excerpt: Seeds of mono- and dicotyledonous weed plants were placed in plastic pots in sandy loam soil (doubly sown with one species each of mono- or dicotyledonous weed plants per pot) and covered with soil. The compounds of the invention, formulated in the form of wettable powders (WP) or as emulsion concentrates (EC), were then applied onto the surface of the covering soil as aqueous suspension or emulsion with addition of 0.5% additive at a water application rate of 600 liters per hectare (converted). After the treatment, the pots were placed in a greenhouse and kept under good growth conditions for the test plants. After about 3 weeks, the efficacy of the preparations was scored visually in comparison with untreated controls as percentages.
For example, • 100% efficacy=plants have died, • 0% efficacy=like untreated control plants.
Tables A1a to A12c below show the effects of selected compounds of the general formula (I) according to table 1 on various harmful plants at an application rate corresponding to 1280 g/ha or less, which were obtained by the experimental procedure mentioned above.

[6] = tested on: Amaranthus retroflexus (AMARE); assay: A. Herbicidal pre-emergence efficacy, AMARE
In short: as §1

[7] = tested on: Digitaria sanguinalis (DIGSA); assay: B. Herbicidal post-emergence efficacy, DIGSA; conditions: rated visually after about 3 weeks
Method: as §3, §4, §5

Setaria viridis (SETVI) [8] = assay: A. Herbicidal pre-emergence efficacy, SETVI
In short: as §1

[9] = tested on: Echinochloa crus-galli (ECHCG); assay: B. Herbicidal post-emergence efficacy, ECHCG; conditions: rated visually after about 3 weeks
In short: as §2

[10] = tested on: Digitaria sanguinalis (DIGSA); assay: A. Herbicidal pre-emergence efficacy, DIGSA; conditions: scored visually after about 3 weeks vs untreated controls
In short: as §1

Veronica persica (VERPE) [11] = assay: A. Herbicidal pre-emergence efficacy, VERPE
In short: as §1

[12] = tested on: Abutilon theophrasti (ABUTH); assay: A. Herbicidal pre-emergence efficacy, ABUTH; conditions: scored visually after about 3 weeks vs untreated controls
In short: as §1

Stellaria media (STEME) [13] = assay: A. Herbicidal pre-emergence efficacy, STEME
In short: as §1

Poa annua (POAAN) [14] = assay: B. Herbicidal post-emergence efficacy, POAAN
In short: as §2

Kochia scoparia (KCHSC) [15] = assay: A. Herbicidal pre-emergence efficacy, KCHSC; conditions: pre-emergence
In short: as §1

Setaria viridis (SETVI) [16] = assay: B. Herbicidal post-emergence efficacy, SETVI
Method: as §3, §4, §5

[17] = tested on: Amaranthus retroflexus (AMARE); assay: B. Herbicidal post-emergence efficacy, AMARE
In short: as §2

[18] = tested on: Matricaria inodora (MATIN); assay: A. Herbicidal pre-emergence efficacy, MATIN
In short: as §1

[19] = tested on: Abutilon theophrasti (ABUTH); assay: B. Herbicidal post-emergence efficacy, ABUTH; conditions: rated visually after about 3 weeks
In short: as §2

Veronica persica (VERPE) [20] = assay: B. Herbicidal post-emergence efficacy, VERPE
In short: as §2

Stellaria media (STEME) [21] = assay: B. Herbicidal post-emergence efficacy, STEME
In short: as §2

**Q.** What does the source list for `O=S(=O)(CC1CC1(Cl)Cl)Oc1c(F)cccc1Oc1ncc(Cl)cn1` (stereo not drawn) [Example I-57]?
**A.** Pre-emergence efficacy against POAAN (Poa annua (POAAN) [1]; dosage 320 g/ha): 100%; Pre-emergence efficacy against POAAN (Poa annua (POAAN) [1]; dosage 1280 g/ha): 100%; Post-emergence efficacy against KCHSC in % (Kochia scoparia (KCHSC) [2]; 80 g/ha): 90%; Post-emergence efficacy against KCHSC in % (Kochia scoparia (KCHSC) [2]; 320 g/ha): 90%; Post-emergence efficacy against KCHSC (Kochia scoparia (KCHSC) [2]; 1280 g/ha): 90%; Pre-emergence efficacy against LOLRI (Lolium rigidum (LOLRI)): 100%; Post-emergence efficacy against MATIN ([3]; 320 g/ha): 90%; Post-emergence efficacy against MATIN ([3]; 1280 g/ha): 90%; Pre-emergence efficacy against ECHCG [4]: 100%; Pre-emergence efficacy against ALOMY [5]: 100%; Pre-emergence efficacy against AMARE in % ([6]; 80 g/ha): 100%; Pre-emergence efficacy against AMARE in % ([6]; 320 g/ha): 100%; Pre-emergence efficacy against AMARE in % ([6]; 1280 g/ha): 100%; Post-emergence efficacy against DIGSA in % ([7]; 320 g/ha): 90%; Post-emergence efficacy against DIGSA in % ([7]; 1280 g/ha): 90%; Pre-emergence efficacy against SETVI (Setaria viridis (SETVI) [8]; dosage 80 g/ha): 90%; Pre-emergence efficacy against SETVI (Setaria viridis (SETVI) [8]; dosage 320 g/ha): 100%; Pre-emergence efficacy against SETVI (Setaria viridis (SETVI) [8]; dosage 1280 g/ha): 100%; Post-emergence efficacy against ECHCG in % ([9]; 320 g/ha): 90%; Post-emergence efficacy against ECHCG in % ([9]; 1280 g/ha): 90%; Pre-emergence efficacy against DIGSA ([10]; 80 g/ha): 90%; Pre-emergence efficacy against DIGSA ([10]; 320 g/ha): 100%; Pre-emergence efficacy against DIGSA ([10]; 1280 g/ha): 100%; Pre-emergence efficacy against VERPE in % (Veronica persica (VERPE) [11]; 320 g/ha): 90%; Pre-emergence efficacy against VERPE in % (Veronica persica (VERPE) [11]; 1280 g/ha): 100%; Pre-emergence efficacy against ABUTH ([12]; 320 g/ha): 90%; Pre-emergence efficacy against ABUTH ([12]; 1280 g/ha): 100%; Pre-emergence efficacy against STEME (Stellaria media (STEME) [13]; dosage 320 g/ha): 100%; Pre-emergence efficacy against STEME (Stellaria media (STEME) [13]; dosage 1280 g/ha): 100%; Post-emergence efficacy against POAAN (Poa annua (POAAN) [14]; 320 g/ha): 90%; Post-emergence efficacy against POAAN (Poa annua (POAAN) [14]; 1280 g/ha): 90%; Pre-emergence efficacy against KCHSC (Kochia scoparia (KCHSC) [15]; dosage 320 g/ha): 100%; Pre-emergence efficacy against KCHSC (Kochia scoparia (KCHSC) [15]; dosage 1280 g/ha): 100%; Post-emergence efficacy against SETVI (Setaria viridis (SETVI) [16]; 320 g/ha): 90%; Post-emergence efficacy against SETVI (Setaria viridis (SETVI) [16]; 1280 g/ha): 90%; Post-emergence efficacy against AMARE ([17]; 80 g/ha): 90%; Post-emergence efficacy against AMARE ([17]; 320 g/ha): 90%; Post-emergence efficacy against AMARE ([17]; 1280 g/ha): 90%; Pre-emergence efficacy against MATIN ([18]; 320 g/ha, scored visually after about 3 weeks vs untreated controls): 90%; Pre-emergence efficacy against MATIN ([18]; pre-emergence, dosage 1280 g/ha): 100%; Post-emergence efficacy against ABUTH in % ([19]; 80 g/ha): 90%; Post-emergence efficacy against ABUTH in % ([19]; 320 g/ha): 90%; Post-emergence efficacy against ABUTH in % ([19]; 1280 g/ha): 90%; Post-emergence efficacy against VERPE (Veronica persica (VERPE) [20]; 80 g/ha): 90%; Post-emergence efficacy against VERPE (Veronica persica (VERPE) [20]; 1280 g/ha): 90%; Post-emergence efficacy against STEME (Stellaria media (STEME) [21]; 80 g/ha): 90%; Post-emergence efficacy against STEME (Stellaria media (STEME) [21]; 320 g/ha): 90%; Post-emergence efficacy against STEME (Stellaria media (STEME) [21]; 1280 g/ha): 90%
